A value given as a limit tells only on which side of the number the result lay.

Experiment [1] deals with T1, KRas WT (Homo sapiens, UniProt P01116).
T1 construct: Biotinylated KRas (corresponding to amino acids 1-169, produced at Accelegan Inc.); biotin (biotinylated); purchased Accelegan Inc
As to the kind of experiment: KRas binding assay, TR-FRET displacement of Cy5 labelled tracer. The note with it: 60-minute incubation at room temperature, 1% DMSO, pH 7.5. Put shortly:
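Final conditions: 1% DMSO, pH 7.5 HEPES buffer, 60 min, room temperature. Protein: biotin-KRas 1-169 with terbium streptavidin. Output: IC50, four-parameter fit of POC.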

In experiment [2] the target is T2, KRas G12S (Homo sapiens, UniProt P01116, G12S).
T2 construct: Biotinylated KRas (corresponding to amino acids 1-169, produced at Accelegan Inc.); biotin (biotinylated); purchased Accelegan Inc
The description is as above. To be noted: 60-minute incubation at room temperature, 1% DMSO, pH 7.5. The gist of the method: (§1)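 Room-temperature incubation (60 min) of compound with biotinylated KRas 1-169, tracer and Tb-streptavidin preceded the TR-FRET read. Final DMSO was 1%; buffer pH 7.5. Percent-of-control values went into a 4-parameter equation to give IC50.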

Experiment [3] addresses T3, KRas G12C (Homo sapiens, UniProt P01116, G12C).
T3 construct: Biotinylated KRas (corresponding to amino acids 1-169, produced at Accelegan Inc.); biotin (biotinylated); purchased Accelegan Inc
The experiment is described as above. The note with it: 60-minute incubation at room temperature, 1% DMSO, pH 7.5. The gist of the method:
as §1

In experiment [4] the target is T4, KRas-mediated phosphorylation of ERK in MKN1 cells (Homo sapiens, UniProt P01116).
T4 construct: pERK HTRF read-out
As to the kind of experiment: Inhibition of KRas-mediated phosphorylation of ERK (HTRF), MKN1 cells. The format is cell-based. The note with it: MKN1 cells (KRas WT); HTRF pERK; 3 h incubation. The method, then: Inhibition of KRas Phosphorylation of ERK (HTRF) by Exemplary Compounds of Formula (Ia) or (Ib)
Cisbio HTRF Advanced pERK Assay Catalog #64AERPEH • Cells: MKN1, PSN1 • Procedure: • 1. Day 1: Seed 6,000 cells/well −25 μl/well in 384-well white solid bottom plate; RPM1_10% FBS. Incubate overnight at 37 °C/5% CO2. • 2.

For experiment [5], the target named is T5, KRas-mediated phosphorylation of ERK in A549 cells (Homo sapiens, UniProt P01116, G12S).
T5 construct: pERK HTRF read-out
The experiment can be described thus: Inhibition of KRas-mediated phosphorylation of ERK (HTRF), A549 cells. The format is cell-based. To be noted: HTRF pERK, 3 h incubation.

T2 sequence (P01116 1-169 isoform P01116-2 G12S): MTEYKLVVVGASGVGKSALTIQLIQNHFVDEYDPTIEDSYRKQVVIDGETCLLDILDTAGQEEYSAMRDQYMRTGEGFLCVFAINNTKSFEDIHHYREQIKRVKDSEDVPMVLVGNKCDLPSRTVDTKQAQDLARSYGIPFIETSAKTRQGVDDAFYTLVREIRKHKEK
T3 sequence (P01116 1-169 isoform P01116-2 G12C): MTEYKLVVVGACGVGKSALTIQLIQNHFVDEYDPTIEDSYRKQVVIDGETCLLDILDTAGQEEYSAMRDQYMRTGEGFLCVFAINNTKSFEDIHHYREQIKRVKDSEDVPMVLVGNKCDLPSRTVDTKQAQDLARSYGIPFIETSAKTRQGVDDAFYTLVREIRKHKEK
T1 sequence (P01116 1-169 isoform P01116-2): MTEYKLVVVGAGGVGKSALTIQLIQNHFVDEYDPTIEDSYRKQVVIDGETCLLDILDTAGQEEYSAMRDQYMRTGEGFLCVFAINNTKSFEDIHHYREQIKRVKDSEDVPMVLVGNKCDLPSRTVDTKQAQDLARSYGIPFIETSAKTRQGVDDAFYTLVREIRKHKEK
T4 sequence (P01116 1-188 isoform P01116-2): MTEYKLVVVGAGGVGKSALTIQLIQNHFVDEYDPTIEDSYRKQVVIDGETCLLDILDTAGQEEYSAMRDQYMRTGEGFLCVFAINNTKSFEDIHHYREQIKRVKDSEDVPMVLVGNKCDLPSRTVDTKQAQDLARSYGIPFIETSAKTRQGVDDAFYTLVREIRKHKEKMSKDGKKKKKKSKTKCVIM
T5 sequence (P01116 1-188 isoform P01116-2 G12S): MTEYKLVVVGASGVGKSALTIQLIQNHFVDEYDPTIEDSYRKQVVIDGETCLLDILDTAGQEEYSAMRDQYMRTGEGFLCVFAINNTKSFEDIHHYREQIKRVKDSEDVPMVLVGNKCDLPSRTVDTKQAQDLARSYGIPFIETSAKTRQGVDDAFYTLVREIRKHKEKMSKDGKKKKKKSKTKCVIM

`CCc1c(F)ccc2cc(O)cc(-c3ncc4c(NC[C@@H]5[C@H](C(=O)n6ccc(C)n6)C5(C)C)nc(OC[C@@]56CCCN5C[C@H](F)C6)nc4c3F)c12` [Example 109, ((1S,3R)-3-(((7-(8-ethyl-7-fluoro-3-hydroxynaphthalen-1-yl)-8-fluoro-2-(((2R,7aS)-2-fluorotetrahydro-1H-pyrrolizin-7a(5H)-yl)methoxy)pyrido[4,3-d]pyrimidin-4-yl)amino)methyl)-2,2-dimethylcyclopropyl)(3-methyl-1H-pyrazol-1-yl)methanone]: the half-maximal inhibitory concentration (IC50) in experiment [1] is 73 nM; in experiment [2], 99 nM; in experiment [3], 134 nM; in experiment [4], 316 nM; in experiment [5], 1920 nM.
`CCc1c(F)ccc2cc(O)cc(-c3ncc4c(NCCCC(=O)n5ccc(C)n5)nc(OC[C@@]56CCCN5C[C@H](F)C6)nc4c3F)c12` [Example 111, 4-((7-(8-ethyl-7-fluoro-3-hydroxynaphthalen-1-yl)-8-fluoro-2-(((2R,7aS)-2-fluorotetrahydro-1H-pyrrolizin-7a(5H)-yl)methoxy)pyrido[4,3-d]pyrimidin-4-yl)amino)-1-(3-methyl-1H-pyrazol-1-yl) butan-1-one]: the IC50 in experiment [1] was 13 nM; in experiment [2] it was 3 nM; in experiment [3], less than 2 nM; in experiment [4], 219 nM; in experiment [5], 16 nM.
On to `CCc1c(F)ccc2cc(O)cc(-c3ncc4c(NC[C@@H]5C[C@H]5C(=O)n5ccc(C)n5)nc(OC[C@@]56CCCN5C[C@H](F)C6)nc4c3F)c12` [Example 112, ((1R,2R)-2-(((7-(8-ethyl-7-fluoro-3-hydroxynaphthalen-1-yl)-8-fluoro-2-(((2R,7aS)-2-fluorotetrahydro-1H-pyrrolizin-7a(5H)-yl)methoxy)pyrido[4,3-d]pyrimidin-4-yl)amino)methyl)cyclopropyl)(3-methyl-1H-pyrazol-1-yl)methanone], for which the IC50 came out at 19 nM in experiment [1]; 9 nM in experiment [2]; 11 nM in experiment [3]; 80 nM in experiment [4]; 15 nM in experiment [5].
As to `CCc1c(F)ccc2cc(O)cc(-c3ncc4c(N5CCC(CC(=O)n6ccc(C)n6)C5)nc(OC[C@@]56CCCN5C[C@H](F)C6)nc4c3F)c12` (stereo partly drawn) [Example 113, 2-(1-(7-(8-ethyl-7-fluoro-3-hydroxynaphthalen-1-yl)-8-fluoro-2-(((2R,7aS)-2-fluorotetrahydro-1H-pyrrolizin-7a(5H)-yl)methoxy)pyrido[4,3-d]pyrimidin-4-yl)pyrrolidin-3-yl)-1-(3-methyl-1H-pyrazol-1-yl) ethan-1-one], the IC50 in experiment [1] worked out at 78 nM; in experiment [2], 31 nM; in experiment [3], 137 nM; in experiment [4], 3150 nM; in experiment [5] it was 110 nM.
As for `CCc1c(F)ccc2cc(O)cc(-c3ncc4c(N5C[C@@H]6[C@H](C5)[C@@H]6C(=O)n5ccc(C)n5)nc(OC[C@@]56CCCN5C[C@H](F)C6)nc4c3F)c12` [Example 114, ((1R,5S,6R)-3-(7-(8-ethyl-7-fluoro-3-hydroxynaphthalen-1-yl)-8-fluoro-2-(((2R,7aS)-2-fluorotetrahydro-1H-pyrrolizin-7a(5H)-yl)methoxy)pyrido[4,3-d]pyrimidin-4-yl)-3-azabicyclo[3.1.0]hexan-6-yl)(3-methyl-1H-pyrazol-1-yl)methanone], the IC50 is 1180 nM in experiment [1]; 664 nM in experiment [2]; 776 nM in experiment [3]; 7830 nM in experiment [4]; greater than 10000 nM in experiment [5].
As to `CCc1c(F)ccc2cc(O)cc(-c3ncc4c(N5C[C@H]6CC(C(=O)n7ccc(C)n7)C[C@@H]6C5)nc(OC[C@@]56CCCN5C[C@H](F)C6)nc4c3F)c12` [Example 115, ((3aS,6aS)-2-(7-(8-ethyl-7-fluoro-3-hydroxynaphthalen-1-yl)-8-fluoro-2-(((2R,7aS)-2-fluorotetrahydro-1H-pyrrolizin-7a(5H)-yl)methoxy)pyrido[4,3-d]pyrimidin-4-yl)octahydrocyclopenta[c]pyrrol-5-yl)(3-methyl-1H-pyrazol-1-yl)methanone], the IC50 is 260 nM in experiment [1]; 1800 nM in experiment [2]; 4120 nM in experiment [3]; 2670 nM in experiment [4]; greater than 10000 nM in experiment [5].
As to `CCc1c(F)ccc2cc(O)cc(-c3ncc4c(N5C[C@H]6CC(C(=O)n7ccc(C)n7)C[C@H]6C5)nc(OC[C@@]56CCCN5C[C@H](F)C6)nc4c3F)c12` (stereo partly drawn) [Example 116, ((3aR,6aS)-2-(7-(8-ethyl-7-fluoro-3-hydroxynaphthalen-1-yl)-8-fluoro-2-(((2R,7aS)-2-fluorotetrahydro-1H-pyrrolizin-7a(5H)-yl)methoxy)pyrido[4,3-d]pyrimidin-4-yl)octahydrocyclopenta[c]pyrrol-5-yl)(3-methyl-1H-pyrazol-1-yl)methanone], the IC50 was 3480 nM in experiment [1]; 11 nM in experiment [2]; 111 nM in experiment [3]; 4440 nM in experiment [4]; 35 nM in experiment [5].
For `CCc1c(F)ccc2cc(O)cc(-c3ncc4c(N5CCCC6CC6(C(=O)n6ccc(C)n6)CC5)nc(OC[C@@]56CCCN5C[C@H](F)C6)nc4c3F)c12` (stereo partly drawn) [Example 117, (4-(7-(8-ethyl-7-fluoro-3-hydroxynaphthalen-1-yl)-8-fluoro-2-(((2R,7aS)-2-fluorotetrahydro-1H-pyrrolizin-7a(5H)-yl)methoxy)pyrido[4,3-d]pyrimidin-4-yl)-4-azabicyclo[6.1.0]nonan-1-yl)(3-methyl-1H-pyrazol-1-yl)methanone], the IC50 came to 68 nM in experiment [1]; 158 nM in experiment [2]; 129 nM in experiment [3]; 333 nM in experiment [4]; 4050 nM in experiment [5].
For `CCc1c(F)ccc2cc(O)cc(-c3ncc4c(N5C[C@@H]6[C@H](C5)[C@H]6C(=O)n5ccc(C)n5)nc(OC[C@@]56CCCN5C[C@H](F)C6)nc4c3F)c12` [Example 118, ((1R,5S,6S)-3-(7-(8-ethyl-7-fluoro-3-hydroxynaphthalen-1-yl)-8-fluoro-2-(((2R,7aS)-2-fluorotetrahydro-1H-pyrrolizin-7a(5H)-yl)methoxy)pyrido[4,3-d]pyrimidin-4-yl)-3-azabicyclo[3.1.0]hexan-6-yl)(3-methyl-1H-pyrazol-1-yl)methanone], the IC50 in experiment [1] is 873 nM; in experiment [2], 437 nM; in experiment [3], 591 nM; in experiment [4], 5750 nM; in experiment [5], 7840 nM.
Turning to `CCc1c(F)ccc2cc(O)cc(-c3ncc4c(N5CC(C(=O)n6ccc(C)n6)C6(CC6)C5)nc(OC[C@@]56CCCN5C[C@H](F)C6)nc4c3F)c12` (stereo partly drawn) [Example 119, (5-(7-(8-ethyl-7-fluoro-3-hydroxynaphthalen-1-yl)-8-fluoro-2-(((2R,7aS)-2-fluorotetrahydro-1H-pyrrolizin-7a(5H)-yl)methoxy)pyrido[4,3-d]pyrimidin-4-yl)-5-azaspiro[2.4]heptan-7-yl)(3-methyl-1H-pyrazol-1-yl)methanone], the IC50 in experiment [1] is 402 nM; in experiment [2], 183 nM; in experiment [3] it was 171 nM; in experiment [4] it was greater than 10000 nM; in experiment [5] it was greater than 10000 nM.
As to `CCc1c(F)ccc2cc(O)cc(-c3ncc4c(N5CC6C(CC(=O)n7ccc(C)n7)C6C5)nc(OC[C@@]56CCCN5C[C@H](F)C6)nc4c3F)c12` (stereo partly drawn) [Example 120, 2-(3-(7-(8-ethyl-7-fluoro-3-hydroxynaphthalen-1-yl)-8-fluoro-2-(((2R,7aS)-2-fluorotetrahydro-1H-pyrrolizin-7a(5H)-yl)methoxy)pyrido[4,3-d]pyrimidin-4-yl)-3-azabicyclo[3.1.0]hexan-6-yl)-1-(3-methyl-1H-pyrazol-1-yl) ethan-1-one], the half-maximal inhibitory concentration (IC50) in experiment [1] worked out at 1210 nM; in experiment [2] it was 186 nM; in experiment [3], 142 nM; in experiment [4], 5380 nM; in experiment [5] it was 229 nM.
`CCc1c(F)ccc2cc(O)cc(-c3ncc4c(NCCC(=O)n5ccc(C)n5)nc(OC[C@@]56CCCN5C[C@H](F)C6)nc4c3F)c12` [Example 122, 3-((7-(8-ethyl-7-fluoro-3-hydroxynaphthalen-1-yl)-8-fluoro-2-(((2R,7aS)-2-fluorotetrahydro-1H-pyrrolizin-7a(5H)-yl)methoxy)pyrido[4,3-d]pyrimidin-4-yl)amino)-1-(3-methyl-1H-pyrazol-1-yl) propan-1-one]: the IC50 in experiment [1] amounted to 19 nM; in experiment [2] it was 5 nM; in experiment [3] it was 9 nM; in experiment [4], 342 nM; in experiment [5], 38 nM.
For the molecule `Cc1ccn(C(=O)C2CCCN(c3nc(OC[C@@]45CCCN4C[C@H](F)C5)nc4c(F)c(-c5ccc(F)c6sc(N)c(C#N)c56)c(Cl)cc34)CCC2)n1` [Example 134, 2-amino-4-(6-chloro-8-fluoro-2-(((2R,7aS)-2-fluorotetrahydro-1H-pyrrolizin-7a(5H)-yl)methoxy)-4-(5-(3-methyl-1H-pyrazole-1-carbonyl)azocan-1-yl)quinazolin-7-yl)-7-fluorobenzo[b]thiophene-3-carbonitrile], the IC50 is 21 nM in experiment [1]; 46 nM in experiment [2]; 59 nM in experiment [3]; 187 nM in experiment [4]; 1840 nM in experiment [5].

(Values after patent publication US20260356856A1, “KRAS G12S AND G12C INHIBITORS” (MIRATI THERAPEUTICS, INC., priority 2023, published 2026).)
